{"source": "PubChem BioAssay AID588780", "about": "(Sanford-Burnham Center for Chemical Genomics, 2011)", "note": "Calls of active or inactive are those of the source.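 Rule for the calls: active = compounds whose fitted half-maximal concentration in the cell-protection dose series is at or below a set limit; inactive = the rest.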"}
{"system": "H9c2 cardiomyocytes, 2-deoxyglucose stress, ATP luminescence, 2 h", "test": "H9c2 cell survival under 2-deoxyglucose stress – uHTS hits, dose response (AID 588780)"}
{"smiles": "Cc1cc(NC(=O)C2CCCCC2)nc2c1c(=O)oc1ccccc12", "IC50": "15.3 µM"}
{"smiles": "COc1ccc(NC(=O)c2oc3ccc(S(=O)(=O)N4CCOCC4)cc3c2C)cc1", "IC50": "> 79 µM (inactive)"}
{"smiles": "Cc1cc(NC(=O)COC(=O)Cn2[nH]c(=O)c3ccccc3c2=O)c([N+](=O)[O-])cc1C", "IC50": "> 79 µM (inactive)"}
{"smiles": "O=C(CCCSc1ccccc1)Nc1nc(-c2ccccn2)cs1", "IC50": "> 79 µM (inactive)"}
{"smiles": "CC(=O)c1ccc(-c2ccc(C(=O)Nc3nc(-c4ccccn4)cs3)o2)cc1", "IC50": "44.7 µM (inactive)"}
{"smiles": "CCc1nc2ccc(C(=O)NCc3cccs3)cn2c1N(C)Cc1nccs1", "IC50": "22.4 µM"}
{"smiles": "COc1cccc(-c2cnc3c(NC=O)cc(-c4cc(C)c(O)c(C)c4)cn23)c1", "IC50": "10.2 µM"}
{"smiles": "COc1cc(/C=N/NC(=O)c2cccnc2)ccc1OS(=O)(=O)c1cc(C)ccc1C", "IC50": "> 79 µM (inactive)"}
{"smiles": "CC(=O)c1cccc(-c2cnc3c(NC=O)cc(-c4ccc(F)cc4)cn23)c1", "IC50": "> 79 µM (inactive)"}
{"smiles": "COc1cc(-c2nnc(-c3cc(-c4ccccc4)nc4ccccc34)o2)cc(OC)c1OC", "IC50": "5.22 µM"}
{"smiles": "CN(C(=O)Cn1nc(C(=O)O)c2ccccc2c1=O)C1(C#N)CCCCC1", "IC50": "> 79 µM (inactive)"}
{"smiles": "Cc1c(C(=O)Nc2ccc3nc(N4CCOCC4)sc3c2)oc2ccccc12", "IC50": "> 79 µM (inactive)"}
{"smiles": "COc1ccc2[nH]c(=O)c(CNC3CCCCC3)cc2c1", "IC50": "> 79 µM (inactive)"}
{"smiles": "O=C(CCc1nc2ccccc2c(=O)[nH]1)Nc1ccc(F)c([N+](=O)[O-])c1", "IC50": "6.81 µM"}
{"smiles": "Cc1ccc(NC(=O)c2nc[nH]c2C(=O)NCCCCCNC(=O)OC(C)(C)C)cc1", "IC50": "> 79 µM (inactive)"}
{"smiles": "CCN1CCN(c2nc3c(c(=O)[nH]2)CCC3)CC1", "IC50": "> 79 µM (inactive)"}
{"smiles": "CCOc1cccc(-c2nn3c(-c4ccco4)nnc3s2)c1", "IC50": "22.6 µM"}
{"smiles": "COc1ccc2occ(C(=O)c3coc4ccc(O)c(CN(C)C)c34)c2c1", "IC50": "> 79 µM (inactive)"}
{"smiles": "CCN(C[C@H]1N[C@@](CC)(C(=O)OC)[C@H]2C(=O)N(Cc3ccccc3)C(=O)[C@@H]12)C(=O)c1ccc(C(C)(C)C)cc1", "IC50": "> 79 µM (inactive)"}
{"smiles": "COc1ccc2c(c1OC)c(=O)n1c3ccc(OC(C)C(=O)NCCN4CCOCC4)cc3c3ccnc2c31", "note": "(stereo not given)", "IC50": "29.3 µM"}
{"smiles": "Cc1ccc(C=NNc2nc3c([nH]2)c(=O)n(C)c(=O)n3C)cc1", "IC50": "11.8 µM"}
{"smiles": "O=C(Nc1cccc(N=Cc2cc(Cl)cc(Br)c2O)c1)c1ccco1", "IC50": "26.5 µM"}
{"smiles": "CCCCCn1nc(C(=O)OCC(=O)c2c(N)n(C)c(=O)n(C)c2=O)c2ccccc2c1=O", "IC50": "20.1 µM"}
{"smiles": "COc1cc(/C=C(\\C#N)C(=O)Nc2ccccc2)ccc1OCCN1CCOCC1", "IC50": "28.4 µM"}
{"smiles": "CC(=O)Nc1cc(-c2ccc(C(=O)N3CCOCC3)cc2)cn2c(-c3ccc(C(C)=O)cc3)cnc12", "IC50": "25.3 µM"}
{"smiles": "NC(=O)c1cc2ccccc2o/c1=N\\NC(=O)c1ccc(F)cc1", "IC50": "8.81 µM"}
{"smiles": "CC(OC(=O)CCc1nc2ccccc2c(=O)[nH]1)C(=O)NC1CCCC1", "note": "(stereo not given)", "IC50": "57.3 µM (inactive)"}
{"smiles": "Cc1ccc(S(=O)(=O)N2CCOCC2)cc1C(=O)Nc1nc(-c2ccccn2)cs1", "IC50": "9.58 µM"}
{"smiles": "COc1ccc(-c2nn3c(-c4ccccc4)nnc3s2)cc1OC", "IC50": "> 79 µM (inactive)"}
{"smiles": "COc1ccc(CCNc2nc(-c3cccnc3)nc3ccccc23)cc1OC", "IC50": "> 79 µM (inactive)"}
{"smiles": "O=C(NCCN1CCN(c2ccccc2F)CC1)c1cccn2c(=O)c3ccccc3nc12", "IC50": "11.2 µM"}
{"smiles": "Cc1nn(Cc2ccc(C(=O)N3CCN(C(=O)c4ccco4)CC3)o2)c(C)c1[N+](=O)[O-]", "IC50": "> 79 µM (inactive)"}
{"smiles": "Cc1ccc(S(=O)(=O)N(C)C)cc1NC(=O)COC(=O)Cc1n[nH]c(=O)c2ccccc12", "IC50": "> 79 µM (inactive)"}
{"smiles": "COc1ccc(C(=O)COc2ccccc2C(N)=O)cc1", "IC50": "> 79 µM (inactive)"}
{"smiles": "O=C(CCc1nc2ccccc2c(=O)[nH]1)N1CCN(S(=O)(=O)c2cc(Cl)ccc2Cl)CC1", "IC50": "> 79 µM (inactive)"}
{"smiles": "O=C(Oc1cccc2c(=O)[nH]ccc12)c1ccccc1", "IC50": "9.07 µM"}
{"smiles": "COc1ccc(-c2ccc3c(c2)S(=O)(=O)c2cccc(C(=O)N4CCN(c5ccccn5)CC4)c2C3=O)cc1OC", "IC50": "13.7 µM"}
{"smiles": "Cc1c(/C=N/NC(=O)c2ccc(O)cc2)c2ccccn2c1C(=O)c1ccc(F)cc1", "IC50": "> 79 µM (inactive)"}
{"smiles": "CCCNC(=O)c1ccc(N2CCC3(CC2)CC(c2ccccc2)=NO3)c(NC(=O)c2ccco2)c1", "IC50": "> 79 µM (inactive)"}
{"smiles": "O=C1N[C@H](Cc2c[nH]c3ccccc23)COC(=O)[C@H](Cc2ccc(F)cc2)C/C=C\\C[C@H]1CC(=O)N(CCO)Cc1ccccc1", "IC50": "17.6 µM"}
{"smiles": "O=C(NCC(=O)N(Cc1cccs1)C(C(=O)NC1CCCC1)c1ccco1)c1cccs1", "note": "(stereo not given)", "IC50": "13.3 µM"}
{"smiles": "O=C(COC(=O)c1ccccc1C(=O)OCC(=O)NCCc1c[nH]c2ccccc12)NCCc1c[nH]c2ccccc12", "IC50": "> 79 µM (inactive)"}
{"smiles": "O=c1[nH]c(CSc2nnc(-c3cccnc3)n2C2CCCCC2)nc2ccccc12", "IC50": "> 79 µM (inactive)"}
{"smiles": "COc1cc(/C=C/c2nc3ccccc3c(=O)n2-c2ccc(O)cc2)ccc1O", "IC50": "9.14 µM"}
{"smiles": "CC(C)Cn1c(N)c(C(=O)COC(=O)CCc2nc3ccccc3c(=O)[nH]2)c(=O)n(C)c1=O", "IC50": "> 79 µM (inactive)"}
{"smiles": "Brc1ccc(-c2ccc(/C=N/Nc3nc(N4CCOCC4)nc(N4CCOCC4)n3)o2)cc1", "IC50": "> 79 µM (inactive)"}
{"smiles": "O=c1cc(-c2cccnc2)oc2c1ccc1ccccc12", "IC50": "12.6 µM"}
{"smiles": "N#Cc1ccccc1OCC(=O)Nc1nc(-c2ccccn2)cs1", "IC50": "> 79 µM (inactive)"}
{"smiles": "Cc1ccc(-c2n[nH]c(=O)c3ccccc23)cc1S(=O)(=O)NCC1CCCO1", "note": "(stereo not given)", "IC50": "> 79 µM (inactive)"}
{"smiles": "O=c1[nH]c2c(c3c1CCCC3)CCCC2", "IC50": "> 79 µM (inactive)"}
{"smiles": "Cc1ccc(-c2[nH]c3cc(C(N)=O)ccc3c(=O)c2O)cc1", "IC50": "> 79 µM (inactive)"}
{"smiles": "COc1cccc(-c2cnc3c(NC(C)=O)cc(-c4cc(OC)c(OC)c(OC)c4)cn23)c1", "IC50": "> 79 µM (inactive)"}
{"smiles": "COc1ccc(CNc2nn3c(-c4cccc(C(=O)N(C)C)c4)cnc3s2)cc1", "IC50": "> 79 µM (inactive)"}
{"smiles": "CC1CN(c2nn3c(=O)c4ccccc4nc3c3ccccc23)CC(C)O1", "note": "(stereo not given)", "IC50": "> 79 µM (inactive)"}
{"smiles": "O=C(Nc1nc2ccccc2n1Cc1ccccc1)c1ccco1", "IC50": "14.7 µM"}
{"smiles": "O=C(CN1CCN(S(=O)(=O)c2ccc(Br)cc2)CC1)c1ccc(O)c(O)c1", "IC50": "19.8 µM"}
{"smiles": "Cc1cc(NC(=O)COc2nnc(-c3ccccc3)c3ccccc23)no1", "IC50": "> 79 µM (inactive)"}
{"smiles": "Nc1ccc(-c2n[nH]c(=O)c3ccccc23)cc1N", "IC50": "> 79 µM (inactive)"}
{"smiles": "COc1cc2nc(C3CCC3)nc(N3CCN(c4ccccn4)CC3)c2cc1OC", "IC50": "> 79 µM (inactive)"}
{"smiles": "COc1ccc(-c2cc(NC(C)=O)c3ncc(-c4cccc(C(C)=O)c4)n3c2)cc1OC", "IC50": "7.56 µM"}
{"smiles": "O=C(N/N=C/c1cn(-c2ccccc2)nc1-c1cccnc1)c1ccccc1", "IC50": "12.8 µM"}
{"smiles": "COc1cc2c(cc1OC)CN(c1nc(-c3cccnc3)nc3ccccc13)CC2", "IC50": "> 79 µM (inactive)"}
{"smiles": "Cc1ccc(-c2nnc(NCc3nc4ccccc4[nH]3)c3ccccc23)cc1S(=O)(=O)N1CCOCC1", "IC50": "> 79 µM (inactive)"}
{"smiles": "COc1ccccc1OCC(=O)Nc1cccc(-c2nnc(-c3ccco3)o2)c1", "IC50": "> 79 µM (inactive)"}
{"smiles": "c1cc2[nH]snc2c2nc(C3CC3)nc12", "IC50": "10.2 µM"}
{"smiles": "O=C(N/N=C/c1cccc(O)c1)c1cc(-c2ccc3c(c2)OCO3)n[nH]1", "IC50": "> 79 µM (inactive)"}
{"smiles": "O=C(OCC(=O)N1CCc2ccccc21)c1n[nH]c(=O)c2ccccc12", "IC50": "> 79 µM (inactive)"}
{"smiles": "C[C@H](NC(=O)c1nc[nH]c1C(=O)NCC(=O)OCc1ccccc1)c1ccccc1", "IC50": "13.6 µM"}
{"smiles": "CCC(C)Nc1ncnc2c1cnn2Cc1ccc(Cl)cc1", "note": "(stereo not given)", "IC50": "> 79 µM (inactive)"}
{"smiles": "O=C(Cn1[nH]c(=O)c2ccccc2c1=O)NNC(=O)c1ccccc1", "IC50": "9.4 µM"}
{"smiles": "CCOC(=O)N1CCN(C(=O)CSc2nc3c(cnn3-c3ccc(C)cc3)c(=O)[nH]2)CC1", "IC50": "> 79 µM (inactive)"}
{"smiles": "Cc1nn(-c2ccccc2)c(C)c1/C=N/NC(=O)c1cc(C2CC2)[nH]n1", "IC50": "12.5 µM"}
{"smiles": "CCOCc1c(C(=O)NC2=Nc3ccccc3NC(CC)=C2C(=O)OCC)oc2ccccc12", "IC50": "> 79 µM (inactive)"}
{"smiles": "COc1cc(NC(=O)c2csc(-c3ccncc3)n2)cc(C(=O)Nc2cccc(C(F)(F)F)c2)c1", "IC50": "8.47 µM"}
{"smiles": "Cc1cccc(C(=O)N/N=C2\\CS(=O)(=O)N(C)c3ccsc32)c1", "IC50": "6.21 µM"}
{"smiles": "O=C(CCc1nc2ccccc2c(=O)[nH]1)OCc1nnc(-c2ccccc2)o1", "IC50": "> 79 µM (inactive)"}
{"smiles": "Cn1c(=O)n(CCc2ccccc2)c(=O)c2c1nc1n2CCN1Cc1ccco1", "IC50": "21.6 µM"}
{"smiles": "O=C(NC(O)C(=O)c1cccs1)c1cccnc1", "note": "(stereo not given)", "IC50": "> 79 µM (inactive)"}
{"smiles": "C[C@H](CO)N1C[C@H](C)[C@@H](CN(C)C(=O)Nc2ccc3c(c2)OCO3)Oc2c(NC(=O)Nc3ccc(C(F)(F)F)cc3)cccc2C1=O", "IC50": "> 79 µM (inactive)"}
{"smiles": "COc1ccccc1-c1cc(NC=O)c2ncc(-c3cccc(C(C)=O)c3)n2c1", "IC50": "> 79 µM (inactive)"}
{"smiles": "COC(=O)c1cc(NC(=O)c2cc3ccccc3o2)cc(C(=O)OC)c1", "IC50": "20.5 µM"}
{"smiles": "CCOC(=O)c1c(NC(=O)COC(=O)Cc2n[nH]c(=O)c3ccccc23)sc(C(=O)NC)c1C", "IC50": "> 79 µM (inactive)"}
{"smiles": "O=c1[nH]c2ccccc2c2ccccc12", "IC50": "> 79 µM (inactive)"}
{"smiles": "Cc1ccc(-c2n[nH]c(=O)c3ccccc23)cc1S(=O)(=O)NC(C)(C)C", "IC50": "> 79 µM (inactive)"}
{"smiles": "COc1cc(C(=O)NNC(=O)c2ccc3ccccc3n2)cc(OC)c1OC", "IC50": "> 79 µM (inactive)"}
{"smiles": "COc1ccc(NCc2n[nH]c(=O)c3ccccc23)cc1", "IC50": "> 79 µM (inactive)"}
{"smiles": "COc1cccc(NC(=O)c2oc3ccc(S(=O)(=O)N4CCOCC4)cc3c2C)c1", "IC50": "> 79 µM (inactive)"}
{"smiles": "CCCCN(Cc1nc2ccccc2c(=O)[nH]1)C(=O)CN1C(=O)NC2(CCCCC2)C1=O", "IC50": "> 79 µM (inactive)"}
{"smiles": "Cc1ccc(C(=O)Nc2cccc(C(F)(F)F)c2)cc1NC(=O)c1csc(-c2ccncc2)n1", "IC50": "> 79 µM (inactive)"}
{"smiles": "COC(=O)c1ccccc1NC(=O)c1nc2nc(C)cc(C)n2n1", "IC50": "> 79 µM (inactive)"}
{"smiles": "CC(OC(=O)Cn1[nH]c(=O)c2ccccc2c1=O)C(=O)Nc1ccccc1[N+](=O)[O-]", "note": "(stereo not given)", "IC50": "27.9 µM"}
{"smiles": "COc1ccc(OC)c(C2CC(=O)c3c([nH]c(C(=O)OCC4CCCO4)c3C)C2)c1", "note": "(stereo not given)", "IC50": "> 79 µM (inactive)"}
{"smiles": "COc1ccc(/C=C(\\C#N)C(=O)c2c(C)[nH]c3ccccc23)cc1OC", "IC50": "> 79 µM (inactive)"}
{"smiles": "CCCc1nc2ccccc2c(C(=O)OCc2nnc(-c3cc(OC)c(OC)c(OC)c3)o2)c1CC", "IC50": "11 µM"}
{"smiles": "Cc1cccc(/N=C/c2c(O)ccc3oc4c(c23)CCCC4)n1", "IC50": "> 79 µM (inactive)"}
